Laboratory results as given in ChEMBL document CHEMBL1201862, “PubChem BioAssay data set” (2004).
Calls of active or inactive are those of the source.

Columns and labels:
[1] = molecular target: Paired box protein Pax-8 (Homo sapiens, UniProt Q06710); assay: PAX8 transcriptional activity inhibition in RMG-I – RMG-I cells, luciferase, cherry-pick, dose response (AID 687027); type: functional, cell-based;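 note: luciferase reporter driven by Pax8 target thyroperoxidase promoter measured by SteadyGlo luminescence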
Sequence of Paired box protein Pax-8 (Q06710 whole entry): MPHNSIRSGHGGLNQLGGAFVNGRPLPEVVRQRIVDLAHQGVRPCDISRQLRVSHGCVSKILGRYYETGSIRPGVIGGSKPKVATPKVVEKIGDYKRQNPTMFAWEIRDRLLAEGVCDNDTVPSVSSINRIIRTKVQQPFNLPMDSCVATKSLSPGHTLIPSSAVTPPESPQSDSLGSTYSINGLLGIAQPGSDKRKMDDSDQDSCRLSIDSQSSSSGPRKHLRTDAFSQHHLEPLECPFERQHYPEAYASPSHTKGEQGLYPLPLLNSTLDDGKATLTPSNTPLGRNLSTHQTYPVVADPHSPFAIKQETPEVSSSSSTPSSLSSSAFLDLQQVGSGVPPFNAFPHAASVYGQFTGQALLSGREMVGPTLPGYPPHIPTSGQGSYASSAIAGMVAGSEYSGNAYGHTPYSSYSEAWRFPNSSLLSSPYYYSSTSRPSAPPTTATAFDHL

[2] = A2780 cell killing – plate reader, dry powder samples, cytotoxicity control, dose response (AID 743046); type: functional, cell-based
[3] = inhibitors of non-replicating M. tuberculosis, dose response, luciferase, dry powder (AID 651619); type: functional; settings: Mycobacterium tuberculosis
[4] = inhibitors of non-replicating M. tuberculosis, dose response, luciferase, dry powder (AID 651620); type: functional; settings: Mycobacterium tuberculosis
[5] = YAP1 overexpression rescue of CTGF inhibition – DLD1 cells, RT-qPCR, cherry-pick, mechanism study for YAP1 pathway inhibitor project, dose response (AID 1053127); type: functional, cell-based; settings: DLD-1
[6] = cytotoxicity in MITF-independent A375 cells – cell-based, CellTiter-Glo luminescence, dry powder, set 4, counter-screen for MITF inhibitor project, dose response (AID 624364); type: functional; settings: A-375;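 note: A375 melanoma cells are MITF independent so this is a counter screen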
[7] = viability loss in MITF-independent A375 cells – cell-based, CellTiter-Glo luminescence, dry powder, set 2, counter-screen for MITF inhibitor project, dose response (AID 624489); type: functional; settings: A-375;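 note: actives are compounds lowering A375 viability meaning general cytotoxicity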
[8] = CellTiter-Glo luminescence survival assay, SW480 colon tumor line, concentration-response curve, half-maximal inhibitory concentration (AID 1117338); type: functional
[9] = RKO cell viability reduction, dose response, CellTiter-Glo luminescence (AID 1117322); type: functional
[10] = cytotoxicity toward HCT116 cells – cell-based, CellTiter-Glo luminescence, IC50, dose response (AID 1117332); type: functional; settings: HCT-116
[11] = SNU-C1 cell viability reduction, dose response, CellTiter-Glo luminescence (AID 1117323); type: functional, cell-based
[12] = cytotoxicity toward Colo320 cells – cell-based, CellTiter-Glo luminescence, IC50, dose response (AID 1117334); type: functional; settings: COLO 320
[13] = cytotoxicity toward HT-29 cells – cell-based, CellTiter-Glo luminescence, IC50, dose response (AID 1117330); type: functional
[14] = Reduced DLD-1 viability, concentration-response, CellTiter-Glo luminescence (AID 1117352); type: functional
[15] = rise of 2N DNA cells, HeLa – IC50, dose response (AID 1117349); type: functional, cell-based
[16] = rise of 4N DNA cells, HeLa – IC50, dose response (AID 1117351); type: functional, cell-based
[17] = HCT116 cell viability decrease, GSK3B pretreatment – CellTiter-Glo, IC50, dose response (AID 1117339); type: functional; settings: HCT-116

## CC(C)CC#Cc1ccc([C@@H]2[C@@H](CO)N3CCCCN(S(=O)(=O)c4ccc(F)cc4)C[C@H]23)cc1
[1]
  AC50: 12.4 µM (active)
[2]
  AC50: 52.3 µM (active)

## Brc1cccc(-c2nnc(SCc3ccccn3)o2)c1
[3]
  IC90: 4 µM (active)
[4]
  IC90: 4 µM (active)

## O=C(Cc1ccncc1)N1CCCCN2[C@H](CO)[C@@H](c3ccc(C#Cc4ccccc4F)cc3)[C@H]2C1
[5]
  AC50: 15.1 µM (active)

## CC(C)(C)[S@@+]([O-])N1Cc2cc(C(=O)NCC(F)(F)F)nc(-c3cccc(-c4cccc(F)c4)c3)c2[C@H]1CCO
[5]
  AC50: > 26 µM (inactive)

## COc1ccc(C2=C(N)C(=O)c3ccccc3C2=O)cc1
[6]
  AC50: > 70 µM (inactive)
[7]
  AC50: > 70 µM (inactive)

## O=c1sc2ccccc2c(O)c1C1CC(c2ccc(-c3ccc(Br)cc3)cc2)Cc2ccccc21 (stereo unspecified)
[8]
  IC50: 0.187 µM (active)
[9]
  IC50: 0.538 µM (active)
[10]
  IC50: 485 nM (active)
[11]
  IC50: 0.252 µM (active)
[12]
  IC50: 0.735 µM (active)
[13]
  IC50: 436 nM (active)
[14]
  IC50: 0.239 µM (active)

## COc1ccc(C2=C(NC(C)=O)C(=O)c3ccccc3C2=O)cc1
[6]
  AC50: 13.4 µM (active)
[7]
  AC50: 8.33 µM (active)

## COc1cc(NC(C)CCCN)c2ncccc2c1 (stereo unspecified) [PRIMAQUINE]
[15]
  IC50: > 10 µM (inactive)
[8]
  IC50: > 20 µM (inactive)
[9]
  IC50: > 20 µM (inactive)
[10]
  IC50: 1880 nM (active)
[11]
  IC50: > 20 µM (inactive)
[12]
  IC50: > 20 µM (inactive)
[16]
  IC50: > 10 µM (inactive)
[14]
  IC50: > 20 µM (inactive)
[17]
  IC50: > 20 µM (inactive)
